As usually defined, the inhibition is the share of the control response that was lost under treatment. As a reminder, the IC50 is the concentration that inhibits the measured activity by half.

In the assay the target is MMP-3 (Homo sapiens, UniProt P08254). Put plainly: MMP-3 fluorescence-based inhibition assay.
Chain of MMP-3 (P08254 100-272 limits assumed): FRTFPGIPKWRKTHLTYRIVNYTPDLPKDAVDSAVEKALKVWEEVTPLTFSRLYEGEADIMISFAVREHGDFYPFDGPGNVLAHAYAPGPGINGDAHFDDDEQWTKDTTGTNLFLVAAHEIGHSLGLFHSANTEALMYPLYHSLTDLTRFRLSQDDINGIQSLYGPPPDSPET

Consider `O=C(NCc1ccc(-c2ccccc2)cc1)c1cc(=O)c(O)co1` [CA1], for which the inhibition at 50 µM (read-out: inhibition of MMP-3) turned out to be 25%.
As for `Cc1cc(=O)c(O)c(C(=O)Nc2ccc(-c3ccccc3)cc2)o1` [AM3], the IC50 stood at 90 µM.

For the origin of these results see patent US8008510B2, “Metalloprotein inhibitors” (The Regents of the University of California, priority 2004, dated 2011).
